The values that follow come from US20230143751A1, “Aromatic Compound And Use Thereof In Preparing Antineoplastic Drugs” (Shanghai Zheye Biotechnology Co. Ltd., priority 2020, published 2023).

Molecules are shown by their SMILES. Where two headings read alike, the source gives them in different places.

The test system of one series is NCI-H358 cells. As to the kind of experiment: Cell proliferation activity of NCI-H358 by CellTiter-Glo reagent. Type of series: cell-based. The method, boiled down: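 NCI-H358 cells seeded at 2000–3000 per well and grown overnight at 37° C, 5% CO2 before compound exposure. Viability read by CellTiter-Glo luminescence; IC50 from curve fitting.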
Background: Cellular ATP, detected with luciferase, serves as a proxy for viable cell number.

Series [1] is described as follows: Preliminary safety test, 5-day escalating oral dosing in Balb/c mice. It counts as in vivo. The protocol:
Test samples: Compound 3-2, Compound 3-6, Compound 3-12M, Compound 3-20, and Compound 4-8.
Animal species and number: Balb/c; 6 animals per group (half male and half female).
Administration mode: oral administration by gavage.
Animal grouping and administration dose: vehicle blank group, Compound 3-2 group (200 mg/kg, 400 mg/kg, 800 mg/kg), Compound 3-6 group (200 mg/kg, 400 mg/kg, 800 mg/kg), Compound 3-12M group (200 mg/kg, 400 mg/kg, 800 mg/kg), Compound 3-20 group (200 mg/kg, 400 mg/kg, 800 mg/kg), Compound 4-8 group (200 mg/kg, 400 mg/kg, 800 mg/kg).
Administration frequency: once a day for 5 days.
General clinical observations were performed 2 times a day (once in the morning and once in the afternoon) during the test period. Death, morbidity, respiration, secretions, feces, and diet, drinking situation and so on were observed, and the changes in body weight of the mice during the administration period were recorded. The animals in each group were euthanized after the administration, and all animals were dissected and subjected to gross observation.

Series [2] deals with MIA PaCa-2-derived xenograft tumor. As to the kind of experiment: Pharmacodynamics test of MIA PaCa-2-derived xenograft tumor model in nude mice (test 6). Type of series: in vivo. How it is done:
Animal species and number: Balb/c Nude; 6 animals per group.
Test samples: Compound 3-2, Compound 3-6, Compound 3-20, Compound 3-12M.
Test groups: blank solvent control group; Compound 3-2 (10 mg/kg, QD×15 days), Compound 3-6 (10 mg/kg, QD×15 days), Compound 3-20 (10 mg/kg, QD×15 days), Compound 3-12M (10 mg/kg, QD×15 days).
Animal model establishment: MIA paca-2 tumor cells in logarithmic growth phase were cultured in vitro and collected, and inoculated subcutaneously into the right back of nude mice at a quantity of 5×10^6 cells/each. When the tumor volume reached 150-300 mm^3, the tumor-bearing nude mice were randomly grouped. Subsequently, the animals in each group were administered, and the day of the first administration was defined as day 1 of the test.
(§1) Administration route and frequency: oral administration by gavage; once a day.
(§2) General state observation: observation time and frequency: once a day; observation indexes or contents: including but not limited to administration location, appearance and signs, general behavioral activities, mental status, death and other abnormal performance of the animals. The animals were euthanized at the end of the test.
Tumor volume calculation: V=½×long diameter×short diameter^2 (mm^3). Tumor growth inhibition rate TGI (%) is used to evaluate the tumor inhibition efficacy of the compounds. TGI (%)=[1−(mean tumor volume in treatment group at the end of administration−mean tumor volume in treatment group at the beginning of administration)/(mean tumor volume in control group at the end of administration−mean tumor volume in control group at the beginning of administration)]×100%.

A further series concerns the target KRAS G12C (Homo sapiens, UniProt P01116, G12C). As to the kind of experiment: Effect on KRAS(G12C) enzyme activity (KRAS G12C/c-Raf binding, Eu/d2 energy transfer). Type of series: biochemical. How it is done:
Compound stock solution was taken, and the test compound was subjected to gradient elution in DMSO. The above diluted compound was added into a quantitative volume of enzyme reaction buffer and subjected to oscillation on a microplate oscillator for 20 min.
4 μL of enzyme was transferred to a 384-well reaction plate. 1 μL of the test compound was added into the 384-well reaction plate. The plate was sealed with sealing film, and the reaction plate with the compound was centrifuged at 1000 rpm for 1 min and incubated for 60 min. 5 μL of a mixture of substrate and antibody was transferred to the 384-well reaction plate. The plate was sealed with sealing film, then centrifuged at 1000 rpm for 1 min and incubated for 120 min at room temperature.
Ratiopositive control: average value of the ratios of 10 positive control wells; Rationegative control: average value of the ratios of 10 negative control wells.

The subject of series [3] is NCI-H358-derived xenograft tumor. As to the kind of experiment: Pharmacodynamics study of H358-derived xenograft tumor model (test 9). It counts as in vivo, nude mice. The note with it: 3-12M 20 and 100 mg/kg, ARS1620 100 mg/kg, i.g., QD×28 days. The protocol: Animal species and number: Balb/c Nude; 10 animals per group.
Test samples: Compound ARS1620 (the representative inhibitor targeting KRAS G12C tumor
target, acquired by purchase) and Compound 3-12M.
Test groups: blank solvent control group;
Compound ARS1620 (100 mg/kg, i.g., QD×28 days);
Compound 3-12M (20 mg/kg, i.g., QD×28 days);
Compound 3-12M (100 mg/kg, i.g., QD×28 days).
NCI-H358 tumor cells in logarithmic growth phase were cultured in vitro and collected, and inoculated subcutaneously into the right back of nude mice at a quantity of 5×10^6 cells/each. When the tumor volume reached 150˜300 mm^3, the tumor-bearing nude mice were randomly grouped. Subsequently, the animals in each group were administered, and the day of the first administration was defined as day 1 of the test.
as §1, §2
Tumor volume calculation: V=½×long diameter×short diameter^2 (mm^3).

Series [4] deals with T1, human-derived MDR1 (MDR1 coding P-gp) transporter protein (Homo sapiens, UniProt P08183).
T1 construct: expressed in transfected cells; host or cells: membrane vesicles expressing human MDR1
As to the kind of experiment: Transport effect of transporter MDR1 (vesicle uptake, P-gp substrate assessment). It counts as in vitro ADME. The note with it: vesicles expressing human-derived MDR1, 37° C. How it is done:
For this test, fluorescein and N-methylquinidine were used as the probe substrates in positive control group. ATP-containing test sample or positive control samples were prepared and pre-incubated with MDR1 vesicles at 37° C. After the pre-incubation, the two kinds of samples were mixed and co-incubated at 37° C. The samples were then transferred to a 96-well filter plate, and washed by suction filtration. The vesicles on the filter plate were lysed by using 80% of methanol, and then centrifuged to collect the filtrate. The filtrate was added with pre-cooled methanol containing internal standard. After the centrifugation, the obtained supernatant was taken and the test sample or positive control samples were detected.

Sequence of KRAS G12C (P01116 1-188 isoform P01116-2 G12C): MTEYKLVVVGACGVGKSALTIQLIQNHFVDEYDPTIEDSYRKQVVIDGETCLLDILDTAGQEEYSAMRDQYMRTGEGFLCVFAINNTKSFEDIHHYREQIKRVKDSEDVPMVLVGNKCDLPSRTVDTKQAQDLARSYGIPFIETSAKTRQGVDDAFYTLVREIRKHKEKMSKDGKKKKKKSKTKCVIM
T1 sequence (P08183 whole entry): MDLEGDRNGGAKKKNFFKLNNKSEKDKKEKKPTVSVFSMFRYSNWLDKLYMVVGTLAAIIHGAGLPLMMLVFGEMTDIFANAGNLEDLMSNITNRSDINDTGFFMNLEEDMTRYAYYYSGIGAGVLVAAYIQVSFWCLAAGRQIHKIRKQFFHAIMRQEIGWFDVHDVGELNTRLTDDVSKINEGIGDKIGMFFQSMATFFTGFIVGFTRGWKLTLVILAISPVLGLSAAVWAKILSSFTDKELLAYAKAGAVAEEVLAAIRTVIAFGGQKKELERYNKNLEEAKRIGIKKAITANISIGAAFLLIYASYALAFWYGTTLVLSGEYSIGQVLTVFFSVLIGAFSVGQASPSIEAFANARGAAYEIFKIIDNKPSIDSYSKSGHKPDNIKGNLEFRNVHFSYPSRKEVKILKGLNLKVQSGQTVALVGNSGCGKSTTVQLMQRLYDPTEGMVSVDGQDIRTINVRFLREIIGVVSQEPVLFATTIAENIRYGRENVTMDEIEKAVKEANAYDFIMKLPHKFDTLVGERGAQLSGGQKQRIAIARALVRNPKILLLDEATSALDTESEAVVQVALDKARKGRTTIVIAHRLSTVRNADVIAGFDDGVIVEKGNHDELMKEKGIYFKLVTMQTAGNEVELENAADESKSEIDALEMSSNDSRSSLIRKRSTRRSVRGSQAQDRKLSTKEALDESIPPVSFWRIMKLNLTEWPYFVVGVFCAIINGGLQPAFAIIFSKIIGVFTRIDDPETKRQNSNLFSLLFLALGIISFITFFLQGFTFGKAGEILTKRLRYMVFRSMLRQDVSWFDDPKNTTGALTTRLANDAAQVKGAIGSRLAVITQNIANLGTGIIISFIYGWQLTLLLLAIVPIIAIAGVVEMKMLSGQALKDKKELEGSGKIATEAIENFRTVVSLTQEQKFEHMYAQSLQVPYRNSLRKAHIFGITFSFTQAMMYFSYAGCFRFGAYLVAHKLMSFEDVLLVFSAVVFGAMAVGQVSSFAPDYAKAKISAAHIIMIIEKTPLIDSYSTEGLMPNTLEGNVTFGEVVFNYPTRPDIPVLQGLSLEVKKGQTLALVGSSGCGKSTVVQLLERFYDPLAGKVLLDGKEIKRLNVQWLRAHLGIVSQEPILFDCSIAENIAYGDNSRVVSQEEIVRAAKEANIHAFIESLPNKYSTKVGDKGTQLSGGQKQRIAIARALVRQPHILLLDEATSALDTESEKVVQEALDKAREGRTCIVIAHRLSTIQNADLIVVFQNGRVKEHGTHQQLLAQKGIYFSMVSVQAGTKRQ

In the case of `[2H]C([2H])=Cc1cccc(F)c1-c1nc2c(cc1Cl)c(N1CCN(C(=O)C=C)C[C@@H]1C)nc(=O)n2-c1c(C)ccnc1C(C)C` [Compound 3-12M], in the series with NCI-H358 cells (72 h, CellTiter-Glo), the “anti-cell proliferation activity against KRAS G12C mutant type cells NCI-H358 (in words)” value is “significant anti-cell proliferation activity”. The IC50 in the series with NCI-H358 cells (Homo sapiens, NCI-H358, 72 h, 72 h, CellTiter-Glo, test 3, read-out: IC50 value of cell proliferation inhibitory activity of NCI-H358) was less than 50 nM. Also, in the series with NCI-H358 cells (NCI-H358), the “cell proliferation inhibitory activity on NCI-H358 compared with the corresponding compound with axial chiral S configuration (in words)” value is “significantly better”. The “cell proliferation inhibitory activity of R-configuration compound relative to the corresponding axial chiral S-configuration compound” value in the series on NCI-H358 cells (NCI-H358, 3-12M versus 3-12P) is recorded as “more than 5 times”. Also, the “cell proliferation inhibitory activity of NCI-H358 compared with AMG510 (in words)” value with NCI-H358 cells (test 8) is on record as “better than AMG510”. Besides, the IC50 in the series on NCI-H358 cells (test 8, method of test 3, read-out: IC50 of proliferation inhibitory activity of the compound on NCI-H358 cell line) stood at 8 nM. The MTD at 5 days in series [1] (both sexes, mouse, in vivo, oral gavage, 5 days, initially suggested, read-out: maximum tolerated dose) is more than 800 mg/kg. For the same compound, the “water and food intake, activity and body weight during the administration period (in words)” value in series [1] (oral gavage once a day for 5 days, 200 to 800 mg/kg) was “no significant abnormality was showed”. Also, in series [2] (10 mg/kg QD×15 days), the “inhibition effect on the growth of subcutaneously transplanted tumors derived from pancreatic cancer MIA paca-2 cells in nude mice (in words)” value is on record as “significant inhibition effect” and the “tumor inhibition rate compared with Compound 3-20 (in words)” value is reported as “higher than that of Compound 3-20”. The “Tumor inhibition rate (%)” value in series [2] (MIA PaCa-2 xenograft, nude mice, 10 mg/kg oral gavage QD×15 days) is reported as “+++ (“+++” represents a tumor inhibition rate of >80%)”. The “inhibitory activity on KRAS G12C enzyme compared with AMG510 (in words)” value on KRAS G12C was “remarkable better”. In addition, in series [3], the “inhibitory activity on tumor growth in vivo compared with ARS1620 (in words)” value was “significantly better than that of ARS1620”. The “substrate for P-gp (in words)” value in series [4] is on record as “not a substrate for P-gp”.
